These compounds were tested against T1, HIV-TAT (Human immunodeficiency virus type 1 group M subtype B, UniProt P04608) (assay: anti-HIV-TAT assay (SeAP reporter under HIV-LTR versus RSV-LTR in transfected COS cells)). Details: specific inhibition 100 [(1-A/B) - (1-C/D)] of SeAP under HIV-LTR versus RSV-LTR, concentrations tested 1 to 50 /1.M, compound added 24 hours post transfection, assayed 48 hours after addition, average of at least three tests.
T1 construct: expressed in transfected cells; host or cells: COS cells
T1 sequence (P04608 whole entry): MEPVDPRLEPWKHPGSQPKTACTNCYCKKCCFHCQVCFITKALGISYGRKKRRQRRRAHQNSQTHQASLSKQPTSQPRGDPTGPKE
Type: cell-based
Description: The compounds of formula I were tested for anti-HIV-TAT activity in an assay described in US Patent No. 5070010, comprising the following steps: • (a) putting both the expression of the Secreted Alkaline Phosphatase (SeAP) gene and the viral trasactivator TAT gene under the control of the HIV promoter LTR responsive to the action of the HIV transactivator TAT; • (b) transfecting cultured mammalian cells with plasmids which contain the gene constructs of (a) above and cause cellular production of the trasactivating factor TAT ad SeAP; • (c) adding the agent to be tested, here the compounds of formula I; and determining the amount of SeAP produced, by measuring SeAP enzymatic activity, whereby inhibition of SeAP production correlates with the anti-TAT inhibition activity.
In this assay, the inhibition of SeAP positively correlates with anti-TAT activity. The greater the ability of a agent to inhibit SeAP, the greater is its anti-TAT activity.
Specifically, with respect to the results reported below, the anti-HIV-TAT assay was run as follows: • At 24 hours post transfection 1, 10 and 50 /1.M of a test compound of formula I was added to the culture media of COS cells transfected with two plasmids, one containing the reporter gene which codes for SeAP under control of HIV-LTR, and the other containing the HIV-TAT gene also under control of HIV-LTR. […]
The anti-HIV-TAT activities of the test compounds were determined by measuring the amount of alkaline phosphatase in the supernatant media of cultures of cells in which SeAP gene expression was under the control of the HIV LTR promoter. The specific inhibitory activities of the test compounds were calculated according to the formula: 100 [(1-A/B) - (1-C/D)] where A and B are the alkaline phosphatase activites produced by HIV-LTR/SeAP in the presence and absence, respectively, of test compound, and C and D are the alkaline phosphatase activities produced by RSV-LTR/SeAP in the presence and absence, respectively, of test compound. […]
For `CNC1=Nc2ccc(Cl)cc2C(c2cnn[nH]2)=NC1` [Example 1, 7-chloro-N-methyl-5-(1H-1,2,3-triazol-5-yl)3H-1,4-benzodiazepin-2-amine], the Anti-HIV-TAT activity was “High (High is >60% inhibition)”. For `CNC1=Nc2ccc(Cl)cc2C(c2cn[nH]c2)=NC1` [Example 2, 7-chloro-N-methyl-5-(1 H-pyrazol-4-yl)-3H-1,4-benzodiazepin-2-amine], the Anti-HIV-TAT activity was “High/Medium”. In the case of `CNC1=Nc2ccc(C)cc2C(c2cn[nH]c2)=NC1` [Example 3, N,7-Dimethyl-5-(1 H-pyrazol-4-yl)-3H-1,4-benzodiazepin-2-amine], the Anti-HIV-TAT activity is reported as “High/Medium”.

From patent EP0574781A2, “2-Amino-5-heterocyclic-substituted-1,4-benzodiazepines and their use in the treatment of aids” (priority 1992, dated 1993)
